Laboratory results: patent publication US10160767B2 (Institute of Pharmacology and Toxicology Academy of …, priority 2014, dated 2018)
pIC50: −log10 of the molar value.

Columns and labels:
[1] = cited from earlier work
[2] = system: metastatic soft-tissue or bone sarcomas; details: phase-III; cited from earlier work
[3] = system: renal cell carcinoma (RCC); details: early RCC patients; cited from earlier work
T cell proliferation = details: read-out: Median inhibitory concentration (IC50), T cell proliferation; cited from earlier work
[4] = system: multi-drug resistant tumor cell line MES-SA; assay: Inhibition of drug-resistant tumor cell line, Cell Titer-Glo cell viability; therapeutic index against MRC5 cells; assay type: cell-based; details: Homo sapiens, 72 h
Procedure: The activity of example compounds to multi-drug resistant tumor cell line MES-SA was evaluated.
(§1) Experimental materials: DMEM high-glucose cell culture media (Hyclone Company), fetal calf serum (FBS) (Gibco Company), penicillin and streptomycin were purchased from North China Pharmaceutical Co., Ltd, phosphate buffer saline (PBS) was purchased from Gibco Company, Cell Titer-Glo® cell viability detection reagent was purchased from Promega Company, pancreatin and dimethylsulfoxide (DMSO) were products of Sigma Company. MES-SA cell line (human uterine sarcoma cell line) was purchased from ATCC. MRC5 cell (human embryonic lung fibroblast) was purchased from ATCC.
(§2) The cells were inoculated on a 96-well plate with white wall and penetrative bottom (Costar) in amount of 5000 cells per well, cultured at condition of 37° C., 5% CO2 for 24 h. The compounds to be tested were dissolved with DMSO and diluted to 100 mM, to obtain mother liquids of the compounds.
(§3) DMEM culture solution containing 2% FBS was used to diluted the compounds, in which concentration gradients were 3, and concentration range was 100 μM to 0.046 μM. The compounds in various dilution degrees were added to the cultured cells on the 96-well plate, 100 μl per well. Culture was performed at 37° C., CO2 for 72 h, supernatant was discarded, and cell viability detection test was performed.
(§4) AfterCell Titer-Glo® reaction buffer solution was mixed with isometric substrate, the mixture was added to 96-well plate, 100 μl per well. Cell lysis was induced by horizontally shaking for 4 min. Reaction signal was stabilized by balancing at room temperature for 15 min. Chemiluminescence units in each well of the 96-well plate were detected by using chemiluminescence detector.
Inhibition rates at different dilution degrees of each compound were calculated according to chemiluminescence value of each well, and Origin 8.0 software was used for S-type curve fitting of each compound, and for calculating EC50 value. The ratio of EC50 value of compound for MRC5 cell to EC50 value of compound for MES-SA cell was used as therapeutic index for the compound.

[5] = Toxicity on rat primary hepatocytes (ATP detection); assay type: cell-based; details: SD, ATP detection reagent
Procedure: Experimental method: Liver lobes of SD rat were placed in sterilized plate, added with a suitable amount of liver cell cleaning solution (precooled at 4° C.), the liver was shredded and fibrous connective tissues were removed to form a liver cell suspension, screened with 200 mesh screen and placed in 50 ml centrifuge tube, centrifuged at 500 rpm for 1-2 min; the supernatant was removed, the precipitate was added with 20-30 ml of RPMI […] (precooled at 4° C.) and washed 3 times; isovolumetric liver cell suspension was taken and suspended in Percoll separating solution I, mixed by turning upside down, centrifuged at 4° C. and 800 rpm for 10 min, the supernatant was discarded, the liver cells were washed with PBS once (800 rpm, 5 min). The liver cell precipitate was added into liver cell culture fluid, resuspended and diluted to 10 ml, and a suitable amount thereof was taken for counting and survival rate was determined by using 0.4% trypan blue. The liver cells with survival rate of 90% or more were inoculated in a density of 2×10^3 on 96-well plate, 100 μl of RPMI 1640 culture medium was added to each well, culture was performed at 37° C., 5% CO2 for 24 h. The compounds were diluted with DMSO to desired concentrations and added to each well in an amount of 1 μl (final compound concentrations were usually initiated from 1000 μM, 10× gradient dilution, 6 gradients), and blank control was added with 1 μl of DMSO.
After the cells were cultured at 37° C., 5% CO2 for 24 h, 100 μl of ATP detection reagent was added, incubated under shock for 15 min. fluorescence values of wells were read by ELIASA. Cell survival rates for each example compounds were calculated, and then GIs values (concentrations of added compounds at which growth of 50% cells was inhibited) were calculated.

tumor cell A549 = assay: Tumor cell inhibition, Cell Titer-Glo cell viability; assay type: cell-based; details: Homo sapiens, A549 cells, 72 h
Procedure: The activities of example compounds to tumor cell A549 were evaluated.
as §1, with “A549” for “MES-SA”, “lung adenocarcinoma” for “uterine sarcoma”, “ATCC.” for “ATCC. MRC5 cell (human embryonic lung fibroblast) was purchased from ATCC.”
as §2
as §3, with “3 nM.” for “0.046 μM.”
as §4
Inhibition rates at different dilution degrees of each compound were calculated according to chemiluminescence value of each well, and Origin 8.0 software was used for S-type curve fitting of each compound, and for calculating EC50 value.

mTORC1 = mTORC1 (Homo sapiens, UniProt P42345); assay: Inhibition of mTORC1 in A549 cells: phosphorylation of Thr389 of S6K1 by Western blot; assay type: cell-based; details: compound 20 μM with insulin 167 nM, 2 h, semi-quantitative
Source text: Molecular mechanism of action of the example compounds in tumor cell A549.
Experimental materials: DMEM high-glucose cell culture media (Hyclone Company), fetal calf serum (FBS) (Gibco Company), penicillin and streptomycin were purchased from North China Pharmaceutical Co., Ltd, phosphate buffer saline (PBS) was purchased from Gibco Company, pancreatic enzyme and dimethylsulfoxide (DMSO) were products of Sigma Company. A549 cell line (human lung adenocarcinoma cell line) was purchased from ATCC. Mouse anti-human p-p70S6K(T389) monoclonal antibody was purchased from Cell Signaling Technology Company, mouse anti-human p70S6K monoclonal antibody was purchased from Cell Signaling Technology Company, mouse anti-human p-AKT (S473) monoclonal antibody was purchased from Cell Signaling Technology Company, mouse anti-human AKTmonoclonal antibody was purchased from Cell Signaling Technology Company. Horseradish peroxidase-labeled goat anti-mouse, goat anti-mouse monoclonal antibodies were purchased from Cell Signaling Technology Company. […]

Row | Structure (SMILES) | pIC50 (tumor cell A549) | melting point [°C] | pIC50 [4] | GI50 at 24 h [5] [µM] | other results
1 | CO[C@H]1C[C@@H]2CC[C@@H](C)[C@@](O)(O2)C(=O)C(=O)N2CCCC[C@H]2C(=O)O[C@H]([C@H](C)C[C@@H]2CC[C@@H](OCCO)[C@H](OC)C2)CC(=O)[C@H](C)/C=C(\C)[C@@H](O)[C@@H](OC)C(=O)[C@H](C)C[C@H](C)/C=C/C=C/C=C/1C [Everolimus, 42-O-(2-hydroxyethyl)-rapamycin] | – | – | – | – | Half-life ([1]; in human body): 16 to 19 h; Oral bioavailability ([1]; oral): 15%-30%
2 | CO[C@H]1C[C@@H]2CC[C@@H](C)[C@@](O)(O2)C(=O)C(=O)N2CCCC[C@H]2C(=O)O[C@H]([C@H](C)C[C@@H]2CC[C@@H](OP(C)(C)=O)[C@H](OC)C2)CC(=O)[C@H](C)/C=C(\C)[C@@H](O)[C@@H](OC)C(=O)[C@H](C)C[C@H](C)/C=C/C=C/C=C/1C [Ridaforolimus] | – | – | – | – | Mortality risk reduction in comparison with placebo group [2]: 28%
3 | CO[C@H]1C[C@@H]2CC[C@@H](C)[C@@](O)(O2)C(=O)C(=O)N2CCCC[C@H]2C(=O)O[C@H]([C@H](C)C[C@@H]2CC[C@@H](OC(=O)C(C)(CO)CO)[C@H](OC)C2)CC(=O)[C@H](C)/C=C(\C)[C@@H](O)[C@@H](OC)C(=O)[C@H](C)C[C@H](C)/C=C/C=C/C=C/1C [Temsirolimus] | – | – | – | – | Extension of median survival time [3]: 3-6 months; pIC50 (T cell proliferation): 9.10
4 | CO[C@H]1C[C@@H]2CC[C@@H](C)[C@@](O)(O2)C(=O)C(=O)N2CCCC[C@H]2C(=O)O[C@H]([C@H](C)C[C@@H]2CC[C@@H](OC(=O)C[n+]3cccc(C)c3)[C@H](OC)C2)CC(=O)[C@H](C)/C=C(\C)[C@@H](O)[C@@H](OC)C(=O)[C@H](C)C[C@H](C)/C=C/C=C/C=C/1C.[Br-] [Example 11, 42-O-carbonylmethyl-(3-methyl-pyridine bromide salt-1-yl)-rapamycin] | 4.28 | 138 to 140 | > 7.34 | 71.8 | –
5 | CO[C@H]1C[C@@H]2CC[C@@H](C)[C@@](O)(O2)C(=O)C(=O)N2CCCC[C@H]2C(=O)O[C@H]([C@H](C)C[C@@H]2CC[C@@H](OC(=O)C[n+]3ccc(C)cc3)[C@H](OC)C2)CC(=O)[C@H](C)/C=C(\C)[C@@H](O)[C@@H](OC)C(=O)[C@H](C)C[C@H](C)/C=C/C=C/C=C/1C.[Br-] [Example 13, 42-O-carbonylmethyl-(4-methyl-pyridine bromide salt-1-yl)-rapamycin] | 4.35 | 157 to 160 | > 7.34 | 44.9 | –

The next lines start with results.

Row | pIC50 (tumor cell A549) | melting point [°C] | Structure (SMILES) | pIC50 [4] | GI50 at 24 h [5] [µM] | other results
6 | 4.31 | – | CO[C@H]1C[C@@H]2CC[C@@H](C)[C@@](O)(O2)C(=O)C(=O)N2CCCC[C@H]2C(=O)O[C@H]([C@H](C)C[C@@H]2CC[C@@H](O)[C@H](OC)C2)CC(=O)[C@H](C)/C=C(\C)[C@@H](O)[C@@H](OC)C(=O)[C@H](C)C[C@H](C)/C=C/C=C/C=C/1C [Rapamycin, reference compound] | > 7.34 | 24.8 | Inhibition of mTORC1 (phosphorylation of Thr389 of S6K1) (mTORC1): could only inhibit mTORC1
7 | 4.39 | 145 to 148 | CO[C@H]1C[C@@H]2CC[C@@H](C)[C@@](O)(O2)C(=O)C(=O)N2CCCC[C@H]2C(=O)O[C@H]([C@H](C)C[C@@H]2CC[C@@H](O)[C@H](OC)C2)CC(=O)[C@H](C)/C=C(\C)[C@@H](OC(=O)C[n+]2ccc(C)cc2)[C@@H](OC)C(=O)[C@H](C)C[C@H](C)/C=C/C=C/C=C/1C.[Br-] [Example 17, 31-O-carbonylmethyl-(4-methyl-pyridine bromide salt-1-yl)-rapamycin] | > 7.34 | 54.3 | –
